Reference: patent US20190076357A1 (SHANGHAI WEI ER BIOPHARMACEUTICAL TECHNOLOGY CO., LTD., priority 2016, published 2019)

Tests used:
[1] = Solubility in medium chain oil; assay type: physicochemical; conditions: oil or lipid
[2] = Drug-forming properties of paclitaxel palmitate preparations (dose forms and preparation methods); assay type: physicochemical; conditions: drug loading 3 mg/mL
Method: 300 mg paclitaxel palmitate, 3.5 g high-purity egg yolk lecithin (EPCS), and 0.3 g DSPE-PEG2000 were weighed out, added with 3 g propylene glycol, and dissolved at 65° C. to obtain an organic phase; 85 g water was weighed out, and dissolved by stirring and heated at 65° C. to obtain an aqueous phase. The organic phase was injected into the aqueous phase by stirring, and mixed to obtain a crude liposome, which was then placed in an extruder, and sequentially extruded through an extrusion film with a pore size of 0.4 μm, 0.2 μm, 0.1 μm, and 0.05 μm, and added with water to 100 ml. pH was adjusted to 4.5 with hydrochloric acid. The filter was sterilized by filtration through a 0.22 μm filter to obtain liposomal paclitaxel palmitate formulations.
0.3 g paclitaxel palmitate and 0.3 g (or 1.5 g, or 3 g, or 6 g, or 9 g) polyethylene glycol monomethyl ether-polylactic acid were weighed out and dissolved in an appropriate amount of acetonitrile. […]

solubility [1]: < 5000 µg/mL
appearance [2]: completely clarified
Structure (SMILES): CC(=O)O[C@H]1C(=O)[C@@]2(C)[C@H]([C@H](OC(=O)c3ccccc3)[C@]3(O)C[C@H](OC(=O)[C@H](O)[C@@H](NC(=O)c4ccccc4)c4ccccc4)C(C)=C1C3(C)C)[C@]1(OC(C)=O)CO[C@@H]1C[C@@H]2O [paclitaxel, Paclitaxel]
